According to ChEMBL document CHEMBL1201862, “PubChem BioAssay data set” (2004):
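All cell lines were grown in 96-well plates and treated with compound for 48 hours. The concentration for 50% growth inhibition is given as GI50.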 Active and inactive are the calls of the source. Rule as the data show it: active = GI50 up to about 1.1 µM and inactive = higher.

Columns and labels:
Test in all cases: NCI-60 cell line screen, 48 h
[1] = system: UACC-62
[2] = system: HCT-116
[3] = system: HOP-62
[4] = system: DU-145
[5] = system: T47D
[6] = system: HCC 2998
[7] = system: MCF7
[8] = system: COLO 205
[9] = system: NCI/ADR-RES
[10] = system: MDA-MB-231
[11] = system: Hs-578T
[12] = system: OVCAR-5
[13] = system: UO-31
[14] = system: HT-29
[15] = system: SF-268
[16] = system: EKVX
[17] = system: ACHN
[18] = system: A498
[19] = system: HCT-15
[20] = system: HL-60

Structure (SMILES)	GI50 [1]	GI50 [2]	GI50 [3]	GI50 [4]	GI50 [5]	GI50 [6]	GI50 [7]	GI50 [8]	GI50 [9]	GI50 [10]	GI50 [11]	GI50 [12]	GI50 [13]	GI50 [14]	GI50 [15]	GI50 [16]	GI50 [17]	GI50 [18]	GI50 [19]	GI50 [20]
Nc1ccc2c(c1)C(=O)c1ccccc1-2	> 100 µM (inactive)	> 100 µM (inactive)	> 100 µM (inactive)	> 100 µM (inactive)	61.8 µM (inactive)	93.3 µM (inactive)	> 100 µM (inactive)	91.4 µM (inactive)	> 100 µM (inactive)	> 100 µM (inactive)	> 100 µM (inactive)	> 100 µM (inactive)	68.2 µM (inactive)	> 100 µM (inactive)	> 100 µM (inactive)	89.7 µM (inactive)	72.9 µM (inactive)	49 µM (inactive)	95.5 µM	30.2 µM (inactive)
COc1ccc(N2C(N)=C(C#N)C(C#N)(C#N)C2c2cccc([N+](=O)[O-])c2)cc1 (stereo not given)	15.9 µM (inactive)	9.91 µM (inactive)	16.3 µM (inactive)	17.8 µM (inactive)	12.6 µM (inactive)	16.9 µM (inactive)	19.9 µM (inactive)	10.7 µM (inactive)	21.1 µM (inactive)	14.9 µM (inactive)	24 µM (inactive)	17.5 µM (inactive)	17.3 µM (inactive)	13.9 µM (inactive)	20.6 µM (inactive)	20.7 µM (inactive)	14.2 µM (inactive)	16.1 µM (inactive)	15.5 µM	3.03 µM (inactive)
COc1cc(/C=C2\C(=O)N(c3ccccc3Cl)C(c3ccccc3)S2(=O)=O)cc(OC)c1OC (stereo not given)	31.9 µM (inactive)	22.9 µM (inactive)	53 µM (inactive)	59 µM (inactive)	32.8 µM (inactive)	> 100 µM (inactive)	25.6 µM (inactive)	36.4 µM (inactive)	29.6 µM (inactive)	49.9 µM (inactive)	46.5 µM (inactive)	20.9 µM (inactive)	30.3 µM (inactive)	16.3 µM (inactive)	46.7 µM (inactive)	41.4 µM (inactive)	> 100 µM (inactive)	> 100 µM (inactive)	44.7 µM	28.6 µM (inactive)
Cc1[nH]c2ccccc2c1/C=N/NC(=O)c1cccc(I)c1	17.8 µM (inactive)	22.9 µM (inactive)	17.6 µM (inactive)	27.9 µM (inactive)	14.8 µM (inactive)	18.6 µM (inactive)	19.5 µM (inactive)	13.5 µM (inactive)	20.3 µM (inactive)	16.7 µM (inactive)	33.1 µM (inactive)	25.1 µM (inactive)	20.7 µM (inactive)	15.7 µM (inactive)	40.6 µM (inactive)	12.2 µM (inactive)	26.8 µM (inactive)	18.4 µM (inactive)	23.7 µM	26.9 µM (inactive)
Nc1ncnc2c1ncn2[C@@H]1O[C@H](COC(c2ccccc2)(c2ccccc2)c2ccccc2)[C@@H](OC(=S)Oc2ccccc2)[C@@H]1F	13.7 µM (inactive)	3.81 µM (inactive)	15.5 µM (inactive)	15.1 µM (inactive)	8.2 µM (inactive)	14 µM (inactive)	3.82 µM (inactive)	12.4 µM (inactive)	4.16 µM (inactive)	10.7 µM (inactive)	6.28 µM (inactive)	19.1 µM (inactive)	4.16 µM (inactive)	6.67 µM (inactive)	3.66 µM (inactive)	12.3 µM (inactive)	10.7 µM (inactive)	18.3 µM (inactive)	3.37 µM	3.18 µM (inactive)
COC(=O)C1Cc2c([nH]c3ccccc23)C(c2cccc(O)c2)N1 (stereo not given)	44.2 µM (inactive)	35.7 µM (inactive)	75.9 µM (inactive)	23.4 µM (inactive)	41.5 µM (inactive)	25.6 µM (inactive)	27.3 µM (inactive)	30.5 µM (inactive)	22.9 µM (inactive)	22.3 µM (inactive)	37.4 µM (inactive)	28.8 µM (inactive)	80 µM (inactive)	27.6 µM (inactive)	40.8 µM (inactive)	40.3 µM (inactive)	60 µM (inactive)	42.9 µM (inactive)	34 µM	22.2 µM (inactive)
c1cc(-c2ccc(-c3ccc(C4=NCCCN4)cc3)o2)ccc1C1=NCCCN1	19 µM (inactive)	39.6 µM (inactive)	47.8 µM (inactive)	89.3 µM (inactive)	59.7 µM (inactive)	92.9 µM (inactive)	88.7 µM (inactive)	68.9 µM (inactive)	76.7 µM (inactive)	> 100 µM (inactive)	98.6 µM (inactive)	> 100 µM (inactive)	> 100 µM (inactive)	76.4 µM (inactive)	> 100 µM (inactive)	40.2 µM (inactive)	> 100 µM (inactive)	2.24 µM (inactive)	90.8 µM	> 100 µM (inactive)
CC(/C=C/c1ccccc1)=N\NC(=S)N/N=C(C)/C=C/c1ccccc1	26.2 µM (inactive)	4.03 µM (inactive)	28.1 µM (inactive)	31.2 µM (inactive)	13.9 µM (inactive)	20.9 µM (inactive)	6.46 µM (inactive)	19 µM (inactive)	16.1 µM (inactive)	12.8 µM (inactive)	> 100 µM (inactive)	28.5 µM (inactive)	4.33 µM (inactive)	8.69 µM (inactive)	4.22 µM (inactive)	47.6 µM (inactive)	23.6 µM (inactive)	1.24 µM (inactive)	12.7 µM	8.67 µM (inactive)
Cc1ccc(-c2c3nc(c(-c4ccc(C)cc4)c4ccc([nH]4)c(-c4ccc(OCC5COC(C)(C)O5)cc4)c4nc(c(-c5ccc(C)cc5)c5ccc2[nH]5)C=C4)C=C3)cc1 (stereo not given)	> 10 µM (inactive)	> 31.6 µM (inactive)	> 31.6 µM (inactive)	> 31.6 µM (inactive)	> 31.6 µM (inactive)	> 31.6 µM (inactive)	> 31.6 µM (inactive)	> 31.6 µM (inactive)	> 31.6 µM (inactive)	> 31.6 µM (inactive)	10.3 µM (inactive)	> 31.6 µM (inactive)	> 31.6 µM (inactive)	> 31.6 µM (inactive)	> 31.6 µM (inactive)	13.5 µM (inactive)	> 31.6 µM (inactive)	1.13 µM (inactive)	> 31.6 µM	> 10 µM (inactive)
CCC(=S)N(C)O	20 µM (inactive)	2.39 µM (inactive)	43.5 µM (inactive)	27.6 µM (inactive)	46.1 µM (inactive)	55.6 µM (inactive)	3.71 µM (inactive)	0.634 µM (active)	17.1 µM (inactive)	42.4 µM (inactive)	> 100 µM (inactive)	45.1 µM (inactive)	26.8 µM (inactive)	0.839 µM (active)	47.4 µM (inactive)	16.5 µM (inactive)	35.2 µM (inactive)	65.9 µM (inactive)	17 µM	1.48 µM (inactive)
C=CCc1oc(C)nc1CCCC	> 100 µM (inactive)	> 100 µM (inactive)	> 100 µM (inactive)	> 100 µM (inactive)	> 100 µM (inactive)	> 100 µM (inactive)	> 100 µM (inactive)	> 100 µM (inactive)	> 100 µM (inactive)	> 100 µM (inactive)	> 100 µM (inactive)	> 100 µM (inactive)	> 100 µM (inactive)	> 100 µM (inactive)	> 100 µM (inactive)	> 100 µM (inactive)	> 100 µM (inactive)	> 100 µM (inactive)	> 100 µM	> 100 µM (inactive)
O=[N+]([O-])/C(Cl)=C(\Sc1ccccc1)C(Cl)=C(Cl)Cl	0.647 µM (active)	0.147 µM (active)	2.06 µM (inactive)	1.71 µM (inactive)	1.28 µM (inactive)	1.93 µM (inactive)	0.159 µM (active)	0.282 µM (active)	0.216 µM (active)	0.264 µM (active)	0.562 µM (active)	1.86 µM (inactive)	0.284 µM (active)	0.355 µM (active)	1.4 µM (inactive)	2.04 µM (inactive)	1.66 µM (inactive)	1.72 µM (inactive)	0.42 µM	0.273 µM (active)
COc1ccc(SCc2cc(OCc3ccccc3)c(OCc3ccccc3)c(OCc3ccccc3)c2)cc1	2.11 µM (inactive)	1.75 µM (inactive)	1.81 µM (inactive)	1.75 µM (inactive)	2.69 µM (inactive)	1.43 µM (inactive)	1.71 µM (inactive)	2.85 µM (inactive)	1.71 µM (inactive)	1.36 µM (inactive)	2.12 µM (inactive)	1.62 µM (inactive)	1.76 µM (inactive)	1.52 µM (inactive)	1.77 µM (inactive)	2 µM (inactive)	1.73 µM (inactive)	2.06 µM (inactive)	1.84 µM	1.87 µM (inactive)
COc1ccc(NS(=O)(=O)c2ccc(NC(NC(=O)CC(C)C)(C(F)(F)F)C(F)(F)F)cc2)nn1	> 100 µM (inactive)	> 100 µM (inactive)	> 100 µM (inactive)	> 100 µM (inactive)	> 100 µM (inactive)	> 100 µM (inactive)	> 100 µM (inactive)	> 100 µM (inactive)	> 100 µM (inactive)	> 100 µM (inactive)	> 100 µM (inactive)	> 100 µM (inactive)	> 100 µM (inactive)	> 100 µM (inactive)	> 100 µM (inactive)	> 100 µM (inactive)	> 100 µM (inactive)	> 100 µM (inactive)	> 100 µM	> 100 µM (inactive)
